In patent publication US20100113549A1, “PYRROLIDINE COMPOUNDS” (ISIS INNOVATION LTD., priority 2004, published 2010):
Read-outs that look alike come from different tables or passages of the source.

Columns and labels:
[1] = target: T1, glucosylceramide synthase (GCS) (Homo sapiens, UniProt Q16739); experiment: Glucosylceramide synthase assay using HL-60 cell microsomes; type: biochemical; conditions: read-out: IC50 as GCS inhibitors
T1 construct: assay was conducted using HL-60 cell microsomes as described in the literature; endogenous in cells; host or cells: HL-60 cell microsomes
T1 sequence (Q16739 1-394): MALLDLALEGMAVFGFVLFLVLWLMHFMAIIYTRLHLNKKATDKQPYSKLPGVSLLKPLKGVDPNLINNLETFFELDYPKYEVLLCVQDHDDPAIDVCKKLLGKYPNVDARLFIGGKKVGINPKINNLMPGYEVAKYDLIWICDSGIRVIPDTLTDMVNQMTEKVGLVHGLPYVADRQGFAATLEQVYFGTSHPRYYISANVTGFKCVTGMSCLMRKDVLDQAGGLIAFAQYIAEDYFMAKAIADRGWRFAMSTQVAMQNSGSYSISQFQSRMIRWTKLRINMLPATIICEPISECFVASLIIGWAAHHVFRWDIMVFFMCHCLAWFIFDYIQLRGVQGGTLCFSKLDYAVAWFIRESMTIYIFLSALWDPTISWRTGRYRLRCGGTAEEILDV
Method: Glucosylceramide synthase [UDP-glucose N-acyl-sphingosine glucosyltransferase (EC 2.4.1.80)] assay was conducted using HL-60 cell microsomes as described in the literature.^iv
All inhibitors were screened at a concentration of 100 μM against glycosidases and 50 μM against glucosylceramide synthase; all assays were recorded in duplicate.

[2] = test system: bovine diarrhoea virus (BVDV); experiment: BVDV antiviral assay in MDBK cells, plaque assay of secreted virus; type: cell-based; conditions: Bovine viral diarrhea virus isolates and strains; MOI=0.5, MDBK cells; read-out: IC50 against BVDV
Method: Madin-Darby bovine kidney cells (MDBK) were grown in DMEM/F12 (purchased from Gibco BRL) supplemented with 10% heat-inactivated horse serum (Gibco BRL). The cytopathic NADL strain of bovine viral diarrhoea virus (BVDV) (kindly provided by Dr. Ruben Donis, University of Nebraska) stock was prepared as previously described.^viii For antiviral activity testing MDBK cells were plated into 24 well plates 24 hours before virus infection. Cells were infected with BVDV at moi=0.5 for 1 hour in 100 μL media with occasional rocking of the plate. The inocula were washed twice with media and regular media were added with 100 μM of the test compound. After 24 hours, the supernatant media were saved. Secreted viruses in the media were titred on new MDBK cells by standard plaque assay. Toxicity of the compounds was determined by examining the tissue culture cells after the 24 hour treatment.

[3] = test system: bovine diarrhoea virus (BVDV); conditions: MOI=0.1, literature (ref 16); read-out: IC50 against BVDV; cited from earlier work

With `CCCCCNC(=O)C1NCC2OC(C)(C)OC21` (stereo not drawn) [compound 11, 2,3-trans-2-(1-Pentylcarbamoyl)-3,4-cis-O-isopropylidene-pyrrolidine] the IC50 [1] was 140 µM.

With `CCCC(C)NC(=O)C1[C@H](O)[C@@H](O)CN1C(=O)c1cccc(N(C)C)c1` (stereo partly shown) [9viiG] the IC50 [2] was 30 µM.

For `CCCCCCCCCN1C[C@H](O)[C@@H](O)[C@H](O)[C@H]1CO` [NN-DNJ], the IC50 [3] is listed as 10 µM.

“1-Butyl-2,3-trans-2-(1-pentylcarbamoyl)-3,4-cis-O-isopropylidene-pyrrolidine [compound 10]” gave an IC50 [1] of 117 µM.

With `CC(C)(C)CC(C)(C)NC(=O)C1[C@H](O)[C@@H](O)CN1C(=O)c1ccccc1` (stereo partly shown) [9iiA] the IC50 [2] was 25 µM.

`CC(C)NC(=O)C1[C@H](O)[C@@H](O)CN1C(=O)c1ccoc1` (stereo partly shown) [9viiiF] gave an IC50 [2] of 30 µM.

In the case of `CCCCN1C[C@H](O)[C@@H](O)[C@H](O)[C@H]1CO` [NB-DNJ], the IC50 [3] is given as 125 µM.
